# Results: PMC6028098, “The N-terminal region of photocleavable peptides that bind HLA-DR1 determines the kinetics of fragment release” (PLoS ONE, 2018)
# Read-outs that look alike come from different tables or passages of the source. Ends that are not written are not given here. Peptide text beside a SMILES is read from it.
# Tests used:
# [1] = target: T1, HLA-DR1 (DRA*01:01/DRB1*01:01) (Homo sapiens, UniProt P01903+P01911, A100R/D57E/F55L/F60I/F76Y/I96L/L162R/M171V/P40L/Q125E/R42F/V115G/Y59C); assay: biochemical; type: binding; conditions: for inhibition at 0.256 µM / inhibition at 1.28 µM / inhibition at 6.4 µM / inhibition at 32 µM / inhibition at 160 µM / inhibition at 0.000256 µM / inhibition at 0.00128 µM / inhibition at 0.0064 µM / inhibition at 0.032 µM / inhibition at 0.16 µM / inhibition at 0.8 µM / inhibition at 4 µM / inhibition at 20 µM: read-out: fraction of labeled HA binding inhibited
# T1 construct: HLA-DR1 (DRA*01:01/DRB1*01:01) extracellular domain was expressed in Drosophila S2 cells; made in house
# [2] = complex with DR2b, 2 minutes of UV exposure; cited from earlier work
# Description: In the only previous report in which a photocleavable peptide was used with a MHC-II protein, the complex studied was DR2b (HLA-DRB1*15:01) with a peptide derived from human myelin basic protein (MBP85-99) with the photocleavable group replacing the residue at P4 position (ENPVVHFXKNIVTPR). […] Thus in this case the peptide is cleaved efficiently and the ...
# [3] = target: DR1 (Homo sapiens, UniProt P01903+P01911, A100R/D57E/F55L/F60I/F76Y/I96L/L162R/M171V/P40L/Q125E/R42F/V115G/Y59C); conditions: binding to DR1, estimated; cited from earlier work
# [4] = target: HLA-DR1 (DRA*01:01/DRB1*01:01) extracellular domain (human); assay: fluorescence polarisation
compound,measurement,setting,value
CC(=O)N[C@@H](Cc1ccc(O)cc1)C(=O)N[C@H](C(=O)N[C@@H](CCCCN)C(=O)NC(CC(=O)N[C@@H](CC(N)=O)C(=O)N[C@H](C(=O)N[C@@H](CC(C)C)C(=O)N[C@@H](CCCNC(=N)N)C(=O)N[C@@H](CC(C)C)C(=O)N[C@@H](C)C(=O)N[C@H](C(=O)O)[C@@H](C)O)[C@@H](C)O)c1ccccc1[N+](=O)[O-])C(C)C (some centres unmarked) [Ac-photoHA-Δ1–2],inhibition at 0.256 µM,[1]; 72 h,-1.47%
same,inhibition at 1.28 µM,[1]; 72 h,-1.61%
same,inhibition at 6.4 µM,[1]; 72 h,-1.21%
same,inhibition at 32 µM,[1]; 72 h,3.82%
same,inhibition at 160 µM,[1]; 72 h,39.8%
CC(=O)N1CCC[C@H]1C(=O)N[C@@H](CCCNC(=N)N)C(=O)N[C@@H](Cc1ccc(O)cc1)C(=O)N[C@H](C(=O)N[C@@H](CCCCN)C(=O)NC(CC(=O)N[C@@H](CC(N)=O)C(=O)N[C@H](C(=O)N[C@@H](CC(C)C)C(=O)N[C@@H](CCCNC(=N)N)C(=O)N[C@@H](CC(C)C)C(=O)N[C@@H](C)C(=O)N[C@H](C(=O)O)[C@@H](C)O)[C@@H](C)O)c1ccccc1[N+](=O)[O-])C(C)C (some centres unmarked) [Ac-photoHA],inhibition at 0.256 µM,[1]; 72 h,-1.71%
same,inhibition at 1.28 µM,[1]; 72 h,-3.02%
same,inhibition at 6.4 µM,[1]; 72 h,-0.583%
same,inhibition at 32 µM,[1]; 72 h,10%
same,inhibition at 160 µM,[1]; 72 h,59%
same,IC50,"[1]; competition with 25 nM Alexa488-labeled HA for DR1 (100 nM per method, 150 nM per Fig 7/8 legends), 37°C, 72 h, fluorescence polarization, mean ± SD of two experiments, SD, read-out: IC50",134 ± 2 nM
CSCC[C@H](NC(=O)[C@H](CCC(N)=O)NC(=O)[C@H](CC(C)C)NC(=O)[C@H](Cc1c[nH]cn1)NC(C)=O)C(=O)NC(CC(=O)N[C@@H](CC(N)=O)C(=O)N[C@@H](C)C(=O)N[C@@H](CC(C)C)C(=O)N[C@@H](C)C(=O)N[C@@H](CC(C)C)C(=O)O)c1ccccc1[N+](=O)[O-] (some centres unmarked) [Peptide L1MxN] (HELM PEPTIDE1{[ac].H.L.Q.M.[O=C(CC(N[*:1])c1ccccc1[N+](=O)[O-])[*:2]].N.A.L.A.L}$$$$V2.0),inhibition at 0.000256 µM,[1]; 72 h,-0.215%
same,inhibition at 0.00128 µM,[1]; 72 h,-0.407%
same,inhibition at 0.0064 µM,[1]; 72 h,-1.67%
same,inhibition at 0.032 µM,[1]; 72 h,-1.44%
same,inhibition at 0.16 µM,[1]; 72 h,2.63%
same,inhibition at 0.8 µM,[1]; 72 h,13%
same,inhibition at 4 µM,[1]; 72 h,49.4%
same,inhibition at 20 µM,[1]; 72 h,86.9%
same,IC50,[1]; SD,4100 ± 298 nM
CSCC[C@H](NC(=O)[C@H](CCC(N)=O)NC(=O)[C@@H](NC(=O)[C@H](Cc1c[nH]cn1)NC(C)=O)C(C)C)C(=O)NC(CC(=O)N[C@@H](CC(N)=O)C(=O)N[C@@H](C)C(=O)N[C@@H](CC(C)C)C(=O)N[C@@H](C)C(=O)N[C@@H](CC(C)C)C(=O)O)c1ccccc1[N+](=O)[O-] (some centres unmarked) [Peptide V1MxN] (HELM PEPTIDE1{[ac].H.V.Q.M.[O=C(CC(N[*:1])c1ccccc1[N+](=O)[O-])[*:2]].N.A.L.A.L}$$$$V2.0),inhibition at 0.000256 µM,[1]; 72 h,-0.0001%
same,inhibition at 0.00128 µM,[1]; 72 h,3%
same,inhibition at 0.0064 µM,[1]; 72 h,5.87%
same,inhibition at 0.032 µM,[1]; 72 h,4.84%
same,inhibition at 0.16 µM,[1]; 72 h,1.29%
same,inhibition at 0.8 µM,[1]; 72 h,10.9%
same,inhibition at 4 µM,[1]; 72 h,34.5%
same,inhibition at 20 µM,[1]; 72 h,92.8%
same,IC50,[1]; SD,5400 ± 341 nM
CSCC[C@H](NC(=O)[C@H](CCC(N)=O)NC(=O)[C@H](Cc1ccc(O)cc1)NC(C)=O)C(=O)NC(CC(=O)N[C@@H](CC(N)=O)C(=O)N[C@@H](C)C(=O)N[C@@H](CC(C)C)C(=O)N[C@@H](C)C(=O)N[C@@H](CC(C)C)C(=O)O)c1ccccc1[N+](=O)[O-] (some centres unmarked) [Peptide Y1MxN] (HELM PEPTIDE1{[ac].Y.Q.M.[O=C(CC(N[*:1])c1ccccc1[N+](=O)[O-])[*:2]].N.A.L.A.L}$$$$V2.0),inhibition at 0.000256 µM,"[1]; 72 h, Fig 2, [Pep] 0.000256 uM, 100 nM DR1, 25 nM Alexa488-labeled HA, 3 days, FP, mean of two experiments in triplicate",-1.47%
same,inhibition at 0.00128 µM,"[1]; 72 h, Fig 2, [Pep] 0.00128 uM, 100 nM DR1, 25 nM Alexa488-labeled HA, 3 days, FP, mean of two experiments in triplicate",4.96%
same,inhibition at 0.0064 µM,"[1]; 72 h, Fig 2, [Pep] 0.0064 uM, 100 nM DR1, 25 nM Alexa488-labeled HA, 3 days, FP, mean of two experiments in triplicate",-1.42%
same,inhibition at 0.032 µM,"[1]; 72 h, Fig 2, [Pep] 0.032 uM, 100 nM DR1, 25 nM Alexa488-labeled HA, 3 days, FP, mean of two experiments in triplicate",13.4%
same,inhibition at 0.16 µM,"[1]; 72 h, Fig 2, [Pep] 0.16 uM, 100 nM DR1, 25 nM Alexa488-labeled HA, 3 days, FP, mean, n = 3",39.7%
same,inhibition at 0.8 µM,"[1]; 72 h, Fig 2, [Pep] 0.8 uM, 100 nM DR1, 25 nM Alexa488-labeled HA, 3 days, FP, mean of two experiments in triplicate",69.7%
same,inhibition at 4 µM,"[1]; 72 h, Fig 2, [Pep] 4 uM, 100 nM DR1, 25 nM Alexa488-labeled HA, 3 days, FP, mean of two experiments in triplicate",90%
same,inhibition at 20 µM,"[1]; 72 h, Fig 2, [Pep] 20 uM, 100 nM DR1, 25 nM Alexa488-labeled HA, 3 days, FP, mean of two experiments in triplicate",96.1%
CC(C)C[C@H](NC(=O)[C@H](CCCNC(=N)N)NC(=O)[C@H](CC(C)C)NC(=O)[C@@H](NC(=O)[C@H](CC(N)=O)NC(=O)CC(NC(=O)[C@H](CCCCN)NC(=O)[C@@H](NC(=O)[C@@H](N)Cc1ccc(O)cc1)C(C)C)c1ccccc1[N+](=O)[O-])[C@@H](C)O)C(=O)N[C@@H](C)C(=O)N[C@H](C(=O)O)[C@@H](C)O (some centres unmarked) [photoHA-Δ1–2],inhibition at 0.256 µM,[1]; 72 h,-1.94%
same,inhibition at 1.28 µM,[1]; 72 h,-1.83%
same,inhibition at 6.4 µM,[1]; 72 h,-1.22%
same,inhibition at 32 µM,[1]; 72 h,-0.549%
same,inhibition at 160 µM,[1]; 72 h,9.88%
CC(C)C[C@H](NC(=O)[C@H](CCCNC(=N)N)NC(=O)[C@H](CC(C)C)NC(=O)[C@@H](NC(=O)[C@H](CC(N)=O)NC(=O)CC(NC(=O)[C@H](CCCCN)NC(=O)[C@@H](NC(=O)[C@H](Cc1ccc(O)cc1)NC(=O)[C@H](CCCNC(=N)N)NC(=O)[C@@H]1CCCN1)C(C)C)c1ccccc1[N+](=O)[O-])[C@@H](C)O)C(=O)N[C@@H](C)C(=O)N[C@H](C(=O)O)[C@@H](C)O (some centres unmarked) [photoHA],inhibition at 0.256 µM,[1]; 72 h,-1.65%
same,inhibition at 1.28 µM,[1]; 72 h,-2.9%
same,inhibition at 6.4 µM,[1]; 72 h,-1.3%
same,inhibition at 32 µM,[1]; 72 h,22.2%
same,inhibition at 160 µM,[1]; 72 h,66.3%
same,IC50,[1]; SD,92 ± 2 nM
"Ac-PRYVKQNTLRLAT [HA, reference compound]",inhibition at 0.0064 µM,[1]; 72 h,7.96%
same,inhibition at 0.032 µM,[1]; 72 h,48.7%
same,inhibition at 0.16 µM,[1]; 72 h,70.6%
same,inhibition at 0.256 µM,[1]; 72 h,-1.7%
same,inhibition at 0.8 µM,[1]; 72 h,95%
same,inhibition at 1.28 µM,[1]; 72 h,-1.55%
same,inhibition at 4 µM,[1]; 72 h,99%
same,inhibition at 6.4 µM,[1]; 72 h,-0.259%
same,inhibition at 20 µM,[1]; 72 h,104%
same,inhibition at 32 µM,[1]; 72 h,29.5%
same,inhibition at 160 µM,[1]; 72 h,76.5%
same,IC50,"[1]; competition with 25 nM Alexa488-labeled HA for DR1 (100 nM per method, 150 nM per Fig 7/8 legends), 37°C, 72 h, fluorescence polarization, mean ± SD of two experiments, read-out: IC50",40 nM
ENPVVHFXKNIVTPR,parent peptide after UV exposure,[2],almost undetectable
"HA306-318: immunodominant viral epitope from influenza virus hemagglutinin (Ac-PRYVKQNTLRLAT; not fully specified (residue 5); also: label on K5, type not given here)",Kd,[3],13 nM
L1MxN photocleavable peptide (Ac-HLQMxNALAL),IC50,[4],4100 nM
V1MxN photocleavable peptide (Ac-HVQMxNALAL),IC50,[4],5400 nM
Y1MxN photocleavable peptide (Ac-YQMxNALAL),IC50,[4],323 nM
